Results reported in paper PMC12914960, “Repurposing a detrimental antibody epitope as targeted therapeutics for sepsis and rheumatoid arthritis” (Military Medical Research, 2026).
Values joined by “and” are separate entries in the source; they are usually repeats but may differ in a detail not shown here. Identical values can stand only once. Where a SMILES comes first, the peptide text is derived from it.

Tests used:
[1] = system: CAIA-induced pain sensitivity in BALB/c mice; assay: Mechanical allodynia, Von Frey filaments, in CAIA mice; assay type: in vivo, mouse; design: key to CAIA-induced pain sensitivity (Von Frey score) / CAIA-induced pain response (Vor Frey score): 50% paw withdrawal threshold, force in g; conditions: for CAIA-induced pain response (Vor Frey score): female, effect of mAb2, P2-1
Protocol: Mechanical allodynia was assessed using Von Frey filaments (Stoelting Co., Wood Dale, IL, USA) applied to the plantar surface of the hind paws as previously described. The mice (n = 6–10) were habituated to individual transparent enclosures on an elevated wire mesh platform. Calibrated Von Frey filaments (0.008–2.000 g) were applied for 2–3 s or until a withdrawal response occurred. The “up-down” method determines the 50% paw withdrawal threshold, defined as the force required to elicit a withdrawal response in 50% of applications.

[2] = system: pCTS-L secretion from human PBMCs; assay: HMGB1-induced pCTS-L secretion by PBMCs, Western blotting; assay type: cell-based; conditions: 16 h; for pCTS-L release: densitometry
Protocol: Human blood was purchased from the New York Blood Center (Long Island City, NY, USA), and PBMCs were isolated via density gradient centrifugation through Ficoll (Ficoll-Paque PLUS) as previously described. PBMCs were cultured in RPMI-1640 supplemented with 10% human serum, 2 mmol/L L-glutamine, 100 U/ml penicillin, and 100 µg/ml streptomycin (all from Invitrogen, Carlsbad, CA, USA). For experiments, PBMCs were stimulated with recombinant HMGB1 (0.5 or 2.0 µg/ml) for 16 h, either alone or in combination with P2-1 at 5.0 or 10.0 µg/ml. Cell-free supernatants were collected for analysis of cytokine/chemokine levels via cytokine antibody arrays, or pCTS-L levels via Western blotting analysis as previously described.
Cell-conditioned medium from human PBMC cultures was collected and concentrated via Amicon Ultra Centrifugal Filters with a 10 kD molecular weight cutoff (Cat. #UFC801096, MilliporeSigma, Burlington, MA, USA). Equal volumes of conditioned medium, representing equivalent numbers of cells, were resolved on sodium dodecyl sulfate-polyacrylamide gels and transferred to polyvinylidene difluoride membranes. After being blocked with 5% nonfat milk in Tris-buffered saline with 0.1% Tween 20, the membranes were probed with a homemade primary monoclonal antibody against pCTS-L (e.g., mAb2, 1:1000) overnight as previously described. After washing, the membranes were incubated with a horseradish peroxidase-conjugated secondary antibody. The protein bands were visualized using enhanced chemiluminescence substrate (Pierce) and detected via a chemiluminescence imaging system (e.g., Bio-Rad ChemiDoc MP). The relative levels of specific proteins were determined using the UN-SCAN-IT gel analysis software version 7.1 (Silk Scientific Inc., Orem, UT, USA) and expressed in arbitrary units (AU). The experiments were performed in quadruplicate (n = 4 biological replicates).
Fig. S9 Full Western blotting analysis of the effect of P2- 1 on HMGB1- induced pCTS-L release in human PBMCs. Human PBMCs were stimulated with HMGB1 (0.5 µ g/ml) in th e abs ence or p resen ce of P2-1 (5.0 or 10.0 µg/ml) for 16 h, and the levels of pCTS-L in the cell-conditioned medium were determined by Western blotting, with sample loading normalized by volume of culture medium conditioned by an equivalent number of cells. Representative Western blotting images showing the dose-dependent […]
human PBMCs. HMGB1 high mobility group box 1, pCTS -L procathepisn L , PBMCs PBMCs peripheral […]
(1 picture or pasted object on this page, not shown here)

Water solubility = assay type: physicochemical; conditions: qualitative, text in Fig. 1d

SMILES: CCCC[C@H](NC(=O)[C@H](Cc1c[nH]cn1)NC(=O)[C@@H](NC(=O)[C@H](CCCCN)NC(=O)[C@@H](N)[C@@H](C)O)C(C)C)C(=O)N[C@@H](CCCCN)C(=O)N[C@@H](CO)C(=O)N[C@@H](Cc1ccccc1)C(=O)N[C@@H](CC(C)C)C(=O)N[C@@H](C)C(=O)N[C@@H](Cc1ccccc1)C(=O)N[C@@H](CCC(N)=O)C(=O)N[C@H](C(=O)N[C@@H](CCCCN)C(=O)N[C@H](C(=O)O)[C@@H](C)O)[C@@H](C)O [P2-1] (HELM PEPTIDE1{T.K.V.H.[Nle].K.S.F.L.A.F.Q.T.K.T}$$$$V2.0; N-terminus and C-terminus assumed)
- CAIA-induced pain sensitivity (Von Frey score) ([1]; CAIA + P2-1 (Day 10), individual values, P = 0.04443 vs. CAIA + Vehicle): 0.14 and 0.17 and 1.23 and 0.05 and 0.75 and 0.26 and 0.09 and 0.57 and 0.18 and 0.16 and 0.44 and 0.78
- pain sensitivity, in words ([1]; P2-1 prophylactic): significantly reduced CAIA-induced pain sensitivity through partial restoration of mechanical withdrawal thresholds
- pain sensitivity, in words ([1]; P2-1 therapeutic, Von Frey): significantly reduced CAIA-induced pain sensitivity by partially restoring withdrawal thresholds to mechanical stimuli
- CAIA-induced pain response (Vor Frey score) ([1]; Day 6, individual values): 0.37 and 0.11 and 0.21 and 0.16 and 1.19
- CAIA-induced pain response (Vor Frey score) ([1]; Day 10, individual values, P = 0.04443 vs. CAIA + Vehicle): 0.57 and 0.31 and 0.96 and 0.32 and 0.44
- pCTS-L release ([2]; HMGB1 (0.5) + P2-1 5.0 μg/ml, individual replicates): 1.2 and 4 and 3.2 and 2.1
- pCTS-L release ([2]; HMGB1 (0.5) + P2-1 10.0 μg/ml, individual replicates): 0.4 and 0.7 and 1.9 and 1.1
- pCTS-L release ([2]; HMGB1 (2.0) + P2-1 5.0 μg/ml, single value): 4.8
- pCTS-L release ([2]; HMGB1 (2.0) + P2-1 10.0 μg/ml, single value): 1.6
- HMGB1-induced pCTS-L secretion, in words ([2]; P2-1 5.0 or 10.0 µg/ml): striking and dose-dependent suppression of HMGB1-induced pCTS-L secretion
- Water solubility (Water solubility): Good water solubility
